{"source": "patent US11311538B2", "about": "“Compositions and methods for targeting cancers” (YALE UNIVERSITY, priority 2018, dated 2022)", "key": {"[1]": {"system": "poly-ADP-ribose (PAR)", "assay": "Poly-ADP-Ribose ELISA in xenograft tumors", "format": "in vivo, mouse", "settings": "24 h post single dose (FIG. 4K)", "protocol": "Tumors developed with mice on a rodent diet including doxycycline just as in the in vivo efficacy studies. Once tumors were at 80 mm^3 mice were gavaged with BMN-673 at 1 or 10 mg/kg or vehicle. Tumors were collected 24 hours later for and frozen at −80° C. The concentrations of BMN-673 in tumor samples were determined using liquid chromatography with tandem mass spectrometry (LC-MS/MS). In brief, an aliquot (30 μL) tumor homogenate was protein precipitated with volumes of methanol, and 5 μL of supernatant was injected into the LC-MS/MS system. LC-MS/MS analyses were performed on a Waters LC-MS/MS system consisting a Waters AQUITY UPLC system coupled with a TQ-XS triple quadrupole mass spectrometer (Milford, Mass., USA). […] BMN673 was monitored using the positive electrospray ionization mode at the most sensitive and specific mass transition, m/z 381.0>228.8. The linear calibration curve was established at BMN673 concentration range of 5-5000 nM in mouse serum. The precision and accuracy of quality control samples were within generally acceptable criteria for bioanalytical methods. Poly-ADP-Ribose ELISA. Poly-ADP-Ribose ELISA was performed per manufacturer's protocol using the PARP in vivo Pharmacodynamic Assay II Kit (Trevigen). 2 μg of protein input was used per replicate and luminescence reading were converted to pg PAR/μg protein using a standard curve. Statistics and Reproducibility. […]"}, "[2]": {"system": "shCTRL-expressing HEK293FT tumor xenografts", "assay": "Tumor growth delay assay, shCTRL HEK293FT xenografts", "format": "in vivo, mouse", "from_the_text": "In vivo efficacy studies: HEK293FT xenografts. Female athymic nu/nu mice (Hsd:Athymic Nude-Foxnlnu, Envigo) were used for all in vivo xenograft studies. Mice were quarantined for at least 1 week before experimental manipulation. Tumors were formed using shRNA-expressing versions of the tumorigenic human embryonic kidney cell-derived line, HEK293FT. HEK293FT is a subline of HEK293 cells that has been transformed by expression of SV40 Large T-antigen. […], or shCTRL (non-targeted control) expressing HEK293FT cells were implanted subcutaneously (5×10^6 cells in 0.1 cc PBS) in the right flank of nude mice. Two efficacy studies were conducted. In one, mice were randomized into treatment and non-treated groups (10 mice/group) at day 3, with treatment initiation 4 days post implant. In a second independent in vivo efficacy study, mice were injected as above with 10 mice per group, and treatment was started only once the tumor volumes reached […]. For both studies, mice were visually observed daily and tumors were measured three times per week by calipers to determine tumor volume using the formula: Volume=L×W×W×0.532. Mice were fed with a grain based rodent diet containing Doxycycline at 200 mg/kg (Bioserv, Catalog #S3888). […] P-values were determined by ANOVA with repeated measures. […]"}, "[3]": {"system": "UOK 262", "assay": "Clonogenic survival assay in cell lines of renal origin", "format": "cell-based, human", "settings": "FIG. 4C (BMN-673), FIG. 8J (mitomycin C)"}}}
{"smiles": "Cn1ncnc1[C@H]1c2n[nH]c(=O)c3cc(F)cc(c23)N[C@@H]1c1ccc(F)cc1", "note": "[BMN-673, BMN-673 (Talazoparib)]", "values": [{"measurement": "PAR levels by ELISA, SDHB knockdown vs shCTRL tumors", "setting": "[1]", "result": "reduced to the same extent"}, {"measurement": "tumor growth vs vehicle, shCTRL tumors", "setting": "[2]; treatment after tumors reached 95-150 mm^3, 0.5 mg/kg oral gavage once daily (FIG. 4I)", "result": "no growth inhibition"}, {"measurement": "tumor growth vs vehicle, shCTRL tumors", "setting": "[2]; treatment beginning four days after implantation, 0.5 mg/kg oral gavage once daily (FIG. 4F)", "result": "no effect"}, {"measurement": "sensitivity of UOK 262 relative to FH-proficient cell lines of renal origin, clonogenic survival", "setting": "[3]", "result": "markedly more sensitive"}]}
